{"source": "patent US20200046870A1", "about": "“MATERIALS COMPRISING HYDROPHOBICALLY-MODIFIED BIOPOLYMER” (GEL-E LIFE SCIENCES, priority 2016, published 2020)", "system": "Methicillin-resistant Staphylococcus aureus (MRSA)", "test": "antimicrobial properties against MRSA (log killing)", "format": "cell-based", "details": "high dose (100 μg/ml)", "description": "FIG. 2 compares the antimicrobial properties of chitosan and hydrophobically modified chitosan, alongside ampicillin, against Methicillin-resistant Staphylococcus aureus (MRSA). Hm-chitosan at 0.5 wt % achieves a log killing of >2, whereas native chitosan (0.5 wt %) achieves a log killing of ˜1. In contrast, ampicillin at high dose (100 μg/ml) achieves only ˜0.5 log killing.", "data": [{"smiles": "CC1(C)S[C@@H]2[C@H](NC(=O)[C@H](N)c3ccccc3)C(=O)N2[C@H]1C(=O)O", "note": "[ampicillin]", "values": [{"measurement": "log killing", "result": "~0.5", "unit": "log"}]}]}
